These are literature values, as cited in patent US11174289B1, “Artificial intelligence designed antimicrobial peptides” (International Business Machines Corporation, priority 2020, dated 2021).

For data set [1] the following is noted: comparison value for the clinically used drug.
For data set [2] the following is noted: no significant antimicrobial activity; strain not given.

Usually LD50 stands for the dose expected to kill half of the subjects tested. On to polymyxin B, for which, in data set [1], the LD50 was 20.5 mg/kg. The term MIC denotes the lowest concentration that inhibits growth of the organism. As for FPVTWPTKWWKG [PuroB], the MIC in data set [2] was more than 200 µg/mL.
